Data taken from patent US10689377B2 (Mirati Therapeutics, Inc., priority 2017, dated 2020).

Legend:
[1] = In vitro stability in human whole blood; type: in vitro ADME; conditions: male, whole blood diluted to 50% with PBS, pH 7.4, human whole blood diluted to 50% with PBS, 5 μM, 37° C., 240-minute incubation, read-out: Compound Half-life
Excerpt: Materials: The following reagents were used as received: acetonitrile (HPLC grade, Burdick & Jackson, Madison, Wis.), phosphate buffered saline (PBS), pH 7.4 (Sigma-Aldrich, Co., St. Louis, Mo.), water (HPLC grade, JT Baker, Phillipsburg, N.J.), DMSO (EM Science, Merck KGaA, Darmstadt, Germany) and isopropanol (IPA, reagent grade, EMD Chemicals, Gibbstown, N.J.). Propantheline and esmolol (Sigma-Aldrich) were used as the positive control compounds in the assay. Diazepam (Sigma-Aldrich) was used as an internal standard for quantitation. Human whole blood was obtained from BioIVT (Westbury, N.Y.) […]. All other reagents and solvents were of the highest analytical grade supplied by Sigma (St. Louis, Mo.) and were used as received.
Blood Incubations: The in vitro stability of representative KRas G12C inhibitor compounds of the present invention in the presence whole blood was conducted in the following manner. Esmolol or propantheline, which are known to undergo ester hydrolysis by esterases in blood and plasma, were used as the positive controls in the assays. A 10 mM stock solution of propantheline, esmolol, or a compound of the present invention in DMSO was diluted to 500 μM with DMSO. Aliquots of whole blood (600 μL), in triplicate, were placed in the appropriate wells of a polypropylene 96-deep well plate (Axygen Scientific, Union City, Calif.). The blood was diluted to 50% using PBS, pH 7.4 (600 μL). The diluted blood was pre-incubated for 15 minutes at 37° C. Each well was dosed with 12 μL of the 500 μM DMSO stock simultaneously for a final test concentration of 5 μM. The plates were mixed at 600 rpm for 10 seconds on a plate shaker (IKA MTS 2/4 Digital Microtiter Shaker, VWR). Aliquots of 100 μL from each well of whole blood were transferred to three separate 96-deep well plates labeled 0, 60, or 240 minutes. At the end of each designated time point, the red blood cells were lysed with 100 μL of water, mixed at 600 rpm for one minute, and stopped with 800 μL of acetonitrile containing IS (0.625 μM diazepam). The plates were mixed on the plate shaker at 600 rpm for one minute and spun in a centrifuge at 2095×g for 7 minutes at room temperature using an Allegra benchtop centrifuge (Beckman Coulter, Fullerton, Calif.). Supernatant (100 μL) was transferred to a shallow 96-well plate (Costar) using a liquid sample handling system (Apricot, Perkin-Elmer, Boston, Mass.). The addition of 100 μL of water was added to each sample of supernatant for a final volume of 200 μL. The plates were sealed and the contents of each well were analyzed by LC-MS/MS.
Analytical quantitation: The LC-MS/MS system was comprised of an HTS-PAL autosampler (Leap Technologies, Carrboro, N.C.), an HP1200 HPLC (Agilent, Palo Alto, Calif.), and an API4000 triple quadrupole mass spectrometer (PE Sciex, a division of Applied Biosystems, Foster City, Calif.). […] The total run time, including re-equilibration, for a single injection was 2 minutes. Mass spectrometric detection of the analytes was accomplished using the ESI ionization mode. Ion current was optimized during infusion of a stock solution of propantheline, esmolol, or the representative test compound. Analyte responses, including the IS were measured by multiple reaction monitoring (MRM) of transitions unique to each compound.
Calculations: Data were acquired and peak areas were calculated for test compounds and the internal standard using Analyst 1.6.2 software (Sciex). The mean peak area ratios were calculated by averaging the peak area ratios (n=3) of each test compound and the IS for each sample.
Peak area tables were exported to BioAssay Enterprise (CambridgeSoft, Cambridge, Mass.), where the average analyte-to-internal standard peak area ratios were used to calculate percent remaining (% REM) and half-life (t1/2). Percent remaining (f) was calculated by determining the ratio of the peak area ratio at each time point to the peak area ratio of the time-zero samples. […]

KRas G12C = KRas G12C (Homo sapiens, UniProt P01116, G12C); assay: Cellular inhibition of KRas G12C measured by Phospho-ERK in NCI-H358 cells; type: cell-based; conditions: pERK(Thr202/Tyr204) normalized with GAPDH, NCI-H358 cells, 3 hours; read-out: IC50
Outline: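 NCI-H358 cells treated 3 h with compound (0.5% DMSO final), then fixed and methanol-permeabilised. In-cell immunofluorescence measured pERK(Thr202/Tyr204) normalised to GAPDH as percent of DMSO control. IC50 from a 4-parameter dose-response fit.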

Sequence of KRas G12C (P01116 1-188 isoform P01116-2 G12C): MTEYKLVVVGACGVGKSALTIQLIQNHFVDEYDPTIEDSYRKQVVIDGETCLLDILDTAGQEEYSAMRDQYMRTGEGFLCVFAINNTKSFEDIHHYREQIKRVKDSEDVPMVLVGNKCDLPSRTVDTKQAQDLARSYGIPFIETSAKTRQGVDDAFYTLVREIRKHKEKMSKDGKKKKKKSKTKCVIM

Row | SMILES | half-life at 5 µM [1] [min] | IC50 (KRas G12C) [nM]
1 | C=C(COC)C(=O)N1CCN(c2nc(OC[C@@H]3CCCN3C)nc3c2CCN(c2cccc4cccc(Cl)c24)C3)C[C@@H]1CC#N [Example 485, 2-[(2S)-4-[7-(8-chloro-1-naphthyl)-2-[[(2S)-1-methylpyrrolidin-2-yl]methoxy]-6,8-dihydro-5H-pyrido[3,4-d]pyrimidin-4-yl]-1-[2-(methoxymethyl)prop-2-enoyl]piperazin-2-yl]acetonitrile] | > 2000 | 0.1 to 1000
2 | CN1CCC[C@H]1COc1nc2c(c(N3CCN(C(=O)/C=C/C(F)(F)F)[C@@H](CC#N)C3)n1)CCN(c1cccc3cccc(Cl)c13)C2 [Example 490, 2-((S)-4-(7-(8-chloronaphthalen-1-yl)-2-(((S)-1-methylpyrrolidin-2-yl)methoxy)-5,6,7,8-tetrahydropyrido[3,4-d]pyrimidin-4-yl)-1-((E)-4,4,4-trifluorobut-2-enoyl)piperazin-2-yl)acetonitrile] | ≤ 200 | 0.1 to 1000
3 | Cc1cccc2cccc(N3CCc4c(nc(OC[C@@H]5CCCN5C)nc4N4CCN(C(=O)/C=C/C(F)(F)F)[C@@H](CC#N)C4)C3)c12 [Example 491, 2-((S)-4-(7-(8-methylnaphthalen-1-yl)-2-(((S)-1-methylpyrrolidin-2-yl)methoxy)-5,6,7,8-tetrahydropyrido[3,4-d]pyrimidin-4-yl)-1-((E)-4,4,4-trifluorobut-2-enoyl)piperazin-2-yl)acetonitrile] | ≤ 200 | 0.1 to 1000
4 | Cc1cccc2cccc(N3CCc4c(nc(OC[C@@H]5CCCN5C)nc4N4CCN(C(=O)/C=C/C(F)F)[C@@H](CC#N)C4)C3)c12 [Example 495, 2-((S)-1-((E)-4,4-difluorobut-2-enoyl)-4-(7-(8-methylnaphthalen-1-yl)-2-(((S)-1-methylpyrrolidin-2-yl)methoxy)-5,6,7,8-tetrahydropyrido[3,4-d]pyrimidin-4-yl)piperazin-2-yl)acetonitrile] | 200 to 1000 | 0.1 to 1000
5 | Cc1cccc2cccc(N3CCc4c(nc(OC[C@@H]5CCCN5C)nc4N4CCN(C(=O)/C=C/CCl)[C@@H](CC#N)C4)C3)c12 [Example 498, 2-((S)-1-((E)-4-chlorobut-2-enoyl)-4-(7-(8-methylnaphthalen-1-yl)-2-(((S)-1-methylpyrrolidin-2-yl)methoxy)-5,6,7,8-tetrahydropyrido[3,4-d]pyrimidin-4-yl)piperazin-2-yl)acetonitrile] | > 2000 | 0.1 to 1000
6 | Cc1cccc2cccc(N3CCc4c(nc(OC[C@@H]5CCCN5C)nc4N4CCN(C(=O)/C=C/C#N)[C@@H](CC#N)C4)C3)c12 [Example 501, (E)-4-((S)-2-(cyanomethyl)-4-(7-(8-methylnaphthalen-1-yl)-2-(((S)-1-methylpyrrolidin-2-yl)methoxy)-5,6,7,8-tetrahydropyrido[3,4-d]pyrimidin-4-yl)piperazin-1-yl)-4-oxobut-2-enenitrile] | ≤ 200 | 0.1 to 1000
7 | Cc1cccc2cccc(N3CCc4c(nc(OC[C@@H]5CCCN5C)nc4N4CCN(C(=O)/C=C\C#N)[C@@H](CC#N)C4)C3)c12 [Example 502, (Z)-4-((S)-2-(cyanomethyl)-4-(7-(8-methylnaphthalen-1-yl)-2-(((S)-1-methylpyrrolidin-2-yl)methoxy)-5,6,7,8-tetrahydropyrido[3,4-d]pyrimidin-4-yl)piperazin-1-yl)-4-oxobut-2-enenitrile] | 200 to 1000 | 0.1 to 1000
8 | C=C(C(=O)N1CCN(c2nc(OC[C@@H]3CCCN3C)nc3c2CCN(c2cccc4cccc(Cl)c24)C3)C[C@@H]1CC#N)C(F)(F)F [Example 504, 2-[(2S)-4-[7-(8-chloro-1-naphthyl)-2-[[(2S)-1-methylpyrrolidin-2-yl]methoxy]-6,8-dihydro-5H-pyrido[3,4-d]pyrimidin-4-yl]-1-[2-(trifluoromethyl)prop-2-enoyl]piperazin-2-yl]acetonitrile] | ≤ 200 | 0.1 to 1000
9 | Cc1cccc2cccc(N3CCc4c(nc(OC[C@@H]5CCCN5C)nc4N4CCN(C(=O)/C=C/CF)[C@@H](CC#N)C4)C3)c12 [Example 506, 2-((S)-1-((E)-4-fluorobut-2-enoyl)-4-(7-(8-methylnaphthalen-1-yl)-2-(((S)-1-methylpyrrolidin-2-yl)methoxy)-5,6,7,8-tetrahydropyrido[3,4-d]pyrimidin-4-yl)piperazin-2-yl)acetonitrile] | 1000 to 2000 | 0.1 to 1000
10 | C=C(F)C(=O)N1CCN(c2nc(OC[C@@H]3CCCN3C)nc3c2CCN(c2cccc4cccc(C)c24)C3)C[C@@H]1CC#N [Example 507] | > 2000 | 0.1 to 1000
11 | Cc1cccc2cccc(N3CCc4c(nc(OC[C@@H]5CCCN5C)nc4N4CCN(C(=O)/C=C/Cn5cccn5)[C@@H](CC#N)C4)C3)c12 [Example 509] | > 2000 | 0.1 to 1000
12 | Cc1cccc2cccc(N3CCc4c(nc(OC[C@@H]5CCCN5C)nc4N4CCN(C(=O)/C=C/CO)[C@@H](CC#N)C4)C3)c12 [Example 510, 2-((S)-1-((E)-4-hydroxybut-2-enoyl)-4-(7-(8-methylnaphthalen-1-yl)-2-(((S)-1-methylpyrrolidin-2-yl)methoxy)-5,6,7,8-tetrahydropyrido[3,4-d]pyrimidin-4-yl)piperazin-2-yl)acetonitrile] | 1000 to 2000 | 0.1 to 1000
13 | COC/C=C/C(=O)N1CCN(c2nc(OC[C@@H]3CCCN3C)nc3c2CCN(c2cccc4cccc(C)c24)C3)C[C@@H]1CC#N [Example 511, 2-((S)-1-((E)-4-methoxybut-2-enoyl)-4-(7-(8-methylnaphthalen-1-yl)-2-(((S)-1-methylpyrrolidin-2-yl)methoxy)-5,6,7,8-tetrahydropyrido[3,4-d]pyrimidin-4-yl)piperazin-2-yl)acetonitrile] | > 2000 | 0.1 to 1000
14 | C=C(OC)C(=O)N1CCN(c2nc(OC[C@@H]3CCCN3C)nc3c2CCN(c2cccc4cccc(C)c24)C3)C[C@@H]1CC#N [Example 512, 2-[(2S)-1-(2-methoxyprop-2-enoyl)-4-[7-(8-methyl-1-naphthyl)-2-[[(2S)-1-methylpyrrolidin-2-yl]methoxy]-6,8-dihydro-5H-pyrido[3,4-d]pyrimidin-4-yl]piperazin-2-yl]acetonitrile] | > 2000 | > 1000
15 | CN1CCC[C@H]1COc1nc2c(c(N3CCN(C(=O)/C=C/CO)[C@@H](CC#N)C3)n1)CCN(c1cccc3cccc(Cl)c13)C2 [Example 513, 2-[(2S)-4-[7-(8-chloro-1-naphthyl)-2-[[(2S)-1-methylpyrrolidin-2-yl]methoxy]-6,8-dihydro-5H-pyrido[3,4-d]pyrimidin-4-yl]-1-[(E)-4-hydroxybut-2-enoyl]piperazin-2-yl]acetonitrile] | 1000 to 2000 | 0.1 to 1000
16 | C=C(OC)C(=O)N1CCN(c2nc(OC[C@@H]3CCCN3C)nc3c2CCN(c2cccc4cccc(Cl)c24)C3)C[C@@H]1CC#N [Example 514, 2-[(2S)-4-[7-(8-chloro-1-naphthyl)-2-[[(2S)-1-methylpyrrolidin-2-yl]methoxy]-6,8-dihydro-5H-pyrido[3,4-d]pyrimidin-4-yl]-1-(2-methoxyprop-2-enoyl)piperazin-2-yl] acetonitrile] | > 2000 | > 1000
